Measured values published in EP3996708B1, “PHARMACEUTICAL COMPOSITIONS COMPRISING INHIBITORS OF OPA1 FOR USE IN THE TREATMENT OF CANCER” (priority 2019, dated 2021).
Like-named read-outs stand apart in the source and are kept apart here. Each block holds one molecule with its values, some of them ahead of it.

How the values were obtained:
rOPA1 = biological target: T1, rOPA1 (Mus musculus, UniProt P58281); test: Malachite green (MG) GTPase activity assay of rOPA1, assay set-up and high-throughput screening (384-well); format: biochemical; settings: for inhibition of rOPA1 GTP hydrolysis: comparison of candidates for positive control; for rOPA1 activity: increasing concentrations of the non-hydrolysable GTP analogues
T1 construct: His-tag (C); made in house; host or cells: E. coli
T1 sequence (P58281 168-960 limits assumed): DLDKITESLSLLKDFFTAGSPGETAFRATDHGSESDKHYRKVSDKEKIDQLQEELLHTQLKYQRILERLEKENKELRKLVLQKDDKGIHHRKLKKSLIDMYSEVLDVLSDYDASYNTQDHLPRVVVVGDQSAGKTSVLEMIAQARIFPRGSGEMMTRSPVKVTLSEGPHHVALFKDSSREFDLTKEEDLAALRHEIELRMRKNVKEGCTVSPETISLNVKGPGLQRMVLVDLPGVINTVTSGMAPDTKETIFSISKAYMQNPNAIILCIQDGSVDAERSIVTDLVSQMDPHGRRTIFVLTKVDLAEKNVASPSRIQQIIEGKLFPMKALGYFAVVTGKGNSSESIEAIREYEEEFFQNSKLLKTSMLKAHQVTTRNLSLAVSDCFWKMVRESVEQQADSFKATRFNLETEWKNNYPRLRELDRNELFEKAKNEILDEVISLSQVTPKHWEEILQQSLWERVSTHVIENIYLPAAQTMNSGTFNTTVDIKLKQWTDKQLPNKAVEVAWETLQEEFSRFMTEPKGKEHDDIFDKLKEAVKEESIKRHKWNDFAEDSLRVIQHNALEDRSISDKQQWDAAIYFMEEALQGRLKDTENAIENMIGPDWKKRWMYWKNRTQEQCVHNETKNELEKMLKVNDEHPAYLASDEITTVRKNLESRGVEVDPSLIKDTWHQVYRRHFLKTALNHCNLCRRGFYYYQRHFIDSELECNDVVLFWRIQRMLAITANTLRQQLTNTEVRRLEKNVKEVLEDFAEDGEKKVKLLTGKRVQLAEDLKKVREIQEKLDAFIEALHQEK

MDA-MB-231 cells [1] = test: Scratch wound migration assay; format: cell-based, human; settings: cells transfected with OPA1 siRNA, 20 µM MYLS22
Experimental: Scratch wound migration assay: HUVEC and MDA cells were cultured in 48-well plates in 800 µl of EGM2 for 48 hours and were wounded with the head of 200 µl tips.

[2] = test system: recombinant Dynamin-1 lacking the proline rich domain (PRD) (Dyn1ΔPRD); test: Malachite green GTPase activity assay of recombinant Dynamin-1 (specificity); settings: even at concentrations four times above the calculated IC50 for OPA1
Experimental: The assay was performed in 96 well-plates in a final volume of 190 µl/well. To start the hydrolysis reaction, 10 µl of 0.5 µM of rOPA1 in 40 mM Hepes/KOH pH 7.4 was mixed with 10 µl of 500 µM GTP and 10 mM MgCl2 and incubated for 2 hours at 37 °C. The reaction was then halted by adding to each well 5 µl of 500 µM EDTA, which chelates the Mg2+ required for GTP hydrolysis. To measure the phosphate content, 150 µL of the Malachite Green-ammonium molybdate solution (1 mM Malachite Green, 10 mM ammonium molybdate in 1N HCl) was added at each well. After 15 minutes incubation at 25 °C, was measured the absorbance at 595 nm using a microplate reader. Phosphate concentration of each sample was calculated from a standard curve ranging from 1 to 100 µM Pi generated for each experiment. […] As positive control of OPA1 activity inhibition, 5 µl of 500 µM EDTA were added before incubation with GTP to prevent the hydrolysis reaction. Samples with only buffer and 500 µM GTP were used as blank controls.

WT MEFs = test: Analysis of cell death by Annexin V / propidium iodide flow cytometry in MEFs; settings: concentrations up to 100 µM, 24h
Experimental: (§2) Analysis of cell death: 1 × 10^5 MEFs were grown in 12-well plates. […] After different timepoints cells were stained with Annexin-V-FICT and propidium iodide (PI), according to manufacturer's protocol (eBioscienceTM). Cell death was measured by flow cytometry (FACSCalibur) as the percentage of Annexin-V and PI positive events.

MEFs [3] = test: Mitochondrial membrane potential by TMRM imaging in response to oligomycin; settings: range of concentrations well above rOPA1 IC50
[4] = test system: mitochondria purified from mouse liver; test: Membrane potential of isolated mitochondria by Rhodamine 123; settings: complex I (glutamate/malate) or complex II (succinate) substrates; concentrations well above rOPA1 IC50
Experimental: (§3) Quantitative determination of cytochrome c in the pellet and the supernatant fractions was determined using the rat/mouse specific ELISA Cytochrome c Immunoassay (R&D Systems). Respiratory chain dysfunctions and membrane potential were assayed by monitoring the release of rhodamine123 from pre-stained mitochondria.

MDA-MB-231 cells [5] = test: Analysis of cell death by Annexin V / propidium iodide flow cytometry in MDA-MB-231 cells
Experimental: After 24h, viability was measured cytofluorimetrically as the percentage of Annexin V and propidium iodide negative cells. […] At the indicated timepoints, cells viability was measured cytofluorimetrically as the percentage of Annexin V and propidium iodide negative cells. Data represents average ± SEM of three independent experiments.
as §2

MEFs [6] = test: Cytochrome c immunolocalization after H2O2
From the text: For cytochrome c and TOM20 detection, green and red channel images respectively were acquired simultaneously using two separate color channels on the detector assembly of a Zeiss LSM 700 confocal microscope.

WT MEFs mitochondria = test: Live imaging of mitochondrial network (mtYFP); settings: 50 µM or 100 µM, 24h
Experimental: After 24 h, the coverslips were incubated in Hank's Balanced Salt Solution (HBSS) supplemented with 10 mM Hepes and placed on the stage of the microscope. […] Stacks of 25 images separated by 0.3 µm along the z axis were acquired. Convolution and z-stack project were performed using a plug-in of the ImageJ software (National Institutes of Health). Mitochondrial length was quantified with Image J by measuring the average mitochondrial major axis length of 10 mitochondria per cell in 20 cells per sample.

[7] = Solubility in water, DMSO and cell culture medium; format: physicochemical
From the text: (§1) Drug Discov Today 17, 419-424).

[8] = test system: purified mouse liver mitochondria; test: In vitro cytochrome c release from isolated mitochondria in response to cBID (ELISA, immunoblot)
Experimental: as §3

[9] = test system: Mouse embryonic fibroblasts (MEFs); test: Cell permeability (280 nm absorbance of extracellular medium; SPE and HPLC-UV of cell lysates); format: in vitro ADME
From the text: as §1

SMILES: O=C(O)CN(CCN(CC(=O)O)CC(=O)O)CC(=O)O [EDTA, ethylenediaminetetraacetic acid]
- inhibition of rOPA1 GTP hydrolysis (rOPA1): stably and fully inhibited GTP hydrolysis

SMILES: Nc1nc2c(ncn2[C@@H]2O[C@H](COP(=O)(O)OP(=O)(O)NP(=O)(O)O)[C@@H](O)[C@H]2O)c(=O)[nH]1 [GMPPNP]
- rOPA1 activity (rOPA1): inhibited

SMILES: Cc1nn(-c2ccccc2)c2sc(C(=O)Nc3c(C)n(C)n(-c4ccccc4)c3=O)cc12 [MYLS22, N-(1,5-dimethyl-3-oxo-2-phenyl-2,3-dihydro-1H-pyrazol-4-YL) 3-methyl-1-phenyl-1H-thieno[2,3-c]pyrazole-5-carboxamide]
- effect on cell migration combined with OPA1 silencing (MDA-MB-231 cells [1]): not additive
- Dyn1ΔPRD inhibition [2]: did not
- cell death (WT MEFs): did not cause MEFs death
- mitochondrial membrane potential (TMRM fluorescence) (MEFs [3]): membrane potential was stable
- uptake of the potentiometric dye Rhodamine 123 [4]: did not reduce uptake
- cell death after an apoptotic stimulus (MDA-MB-231 cells [5]; 50 or 100 µM MYLS22 and 1 mM H2O2): enhances MDA-MB-231 cells death
- cell death (MDA-MB-231 cells [5]; indicated concentrations, 24h): does not induce cell death in MDA-MB-231 cells
- time to maximal release of cytochrome c after apoptosis induction (MEFs [6]; 50µM MYLS22, 1 mM H2O2): 30 min
- release of cytochrome c (MEFs [6]; 50µM MYLS22, H2O2, versus 25 µM MYLS22 or DMSO): significantly more rapidly
- mitochondrial morphology (WT MEFs mitochondria): dose dependent mitochondrial fragmentation and decrease in mitochondrial length
- aqueous solubility [7]: low aqueous solubility
- solubility ([7]; DMSO, organic solvent or mixture, read-out: soluble in DMSO): ≤ 1000 µM
- solubility ([7]; cell culture medium, plasma or biological fluid, read-out: soluble in cell culture medium): ≤ 150 µM
- increase of the amount of cytochrome c release ([8]; 25µM MYLS22, cBID): 1.7 fold
- amount of cytochrome c release ([8]; 125 µM MYLS22, cBID): more than doubled
- cell permeability ([9]; HPLC-UV at 280 nm on cell lysates after SPE): can enter mammalian cells
- concentration of MYLS22 in the extracellular medium ([9]; MEFs in HBSS, 280 nm absorption over time): decreased with incubation time

Second part, the molecule after the results:

- rOPA1 GTPase activity (rOPA1; 500 µM GDP): not influenced
SMILES: Nc1nc2c(ncn2[C@@H]2O[C@H](COP(=O)(O)OP(=O)(O)O)[C@@H](O)[C@H]2O)c(=O)[nH]1 [GDP]

- inhibition of rOPA1 GTP hydrolysis (rOPA1): residual rOPA1 activity
- rOPA1 activity (rOPA1): inhibited
SMILES: Nc1nc2c(ncn2[C@@H]2O[C@H](COP(=O)(O)OP(=O)(O)OP(O)(O)=S)[C@@H](O)[C@H]2O)c(=O)[nH]1 [GTPγS]
